Where two headings read alike, the source gives them in different places.
Target: T1, triosephosphate isomerase (rabbit muscle TIM) (Oryctolagus cuniculus, UniProt P00939)
T1 construct: gene TPI1; native enzyme from rabbit muscle, commercial reagent (Sigma-Aldrich); homodimer; 1R2R is the rabbit TIM structure used for docking
Assay: coupled assay with alpha-glycerophosphate dehydrogenase, NADH at […] nm
Assay type: biochemical

T1 sequence (P00939 2-249): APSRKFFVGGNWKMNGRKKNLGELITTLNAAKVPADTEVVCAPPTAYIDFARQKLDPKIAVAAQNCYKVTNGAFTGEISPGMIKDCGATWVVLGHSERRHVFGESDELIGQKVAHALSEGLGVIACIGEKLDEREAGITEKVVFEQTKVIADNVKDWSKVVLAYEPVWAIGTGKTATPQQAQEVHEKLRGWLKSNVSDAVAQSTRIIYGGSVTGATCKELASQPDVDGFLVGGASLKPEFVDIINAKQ

Ki (glyceraldehyde-3-phosphate 0.4 mM (= Km), NADH 0.1 mM, pH 8.0, Ki calculated from IC50 by Ki = Kapp/(1 + [S]/Km), read-out: 2)	Ki (read-out: K i)	Compound
> 440 µM	–	O=C1C2=C(Nc3[nH]c(=O)[nH]c(=O)c3[C@H]2c2ccccc2)c2ccccc21 [compound 2, Compound 2]
–	44 µM	Nc1nc2c(c(=O)[nH]1)C(c1ccccc1)C1=C(N2)c2ccccc2C1=O (racemic) [compound 1, 2-amino-5-phenyl-3H-indeno[2′,1′:5,6]pyrido[2,3-d]pyrimidine-4,6(5H,11H)-dione]

— paper PMC4207401, “A Novel Inhibitor of Mammalian Triosephosphate Isomerase Found by an In Silico Approach” (International Journal of Medicinal Chemistry, 2014)
